Among the data in PubChem BioAssay (NCI) are TGI and GI50 values, retold here.

Some test systems named below: RPMI-8226 leukemia; SK-MEL-2 melanoma; BT-549 breast; NCI-H522 lung; OVCAR-5 ovarian; SF-295 CNS; OVCAR-3 ovarian; SK-MEL-28 melanoma; SR leukemia; T-47D breast.
What all share (experiment): NCI tumour cell line growth inhibition, 48 h

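Following 48 hours of exposure in 96-well plates, responses at five concentrations were used to interpolate endpoints linearly. GI50: concentration for 50% inhibition of growth. The concentration for full growth arrest is given as TGI.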 *1 amine or outer side, *2 acyl side, *3 side chain or, on linkers, in order; H or OH if unused. Where a SMILES comes first, the peptide text is derived from it. Bridges are numbered along the chain shown (N, C = ends). Roman numbers before positions name the chains, in order. [ ]: non-standard residue; d: D form. Actinocin(9to1) = Cc1c2oc3c(C)ccc(C(=O)[*:1])c3nc-2c(C(=O)[*:2])c(N)c1=O; NMeV = CN[CH](C(=O)O)C(C)C; Sar = CNCC(=O)O

Consider `Cc1c2oc3c(C)ccc(C(=O)NC4C(=O)NC(C(C)C)C(=O)N5CCCC5C(=O)N(C)CC(=O)N(C)C(C(C)C)C(=O)OC4C)c3nc-2c(C(=O)NC2C(=O)NC(C(C)C)C(=O)N3CCCC3C(=O)N(C)CC(=O)N(C)C(C(C)C)C(=O)OC2C)c(N)c1=O` (stereo unspecified) (I: TVP[Sar][NMeV] / II: TVP[Sar][NMeV]; ester I:1-I:C, II:1-II:C; linker I:N-II:N via Actinocin(9to1); configuration not given here), for which the TGI in the assay with RPMI-8226 leukemia was over 1 µM; with SK-MEL-2 melanoma, 0.00295 µM; with BT-549 breast, 0.0292 µM; with NCI-H522 lung, 0.00137 µM; with OVCAR-5 ovarian, 0.00663 µM; in the assay on SF-295 CNS, 0.0687 µM. The figures for the TGI in the assay on OVCAR-3 ovarian and in the assay on SK-MEL-28 melanoma were 0.00907 µM and 0.0125 µM, respectively. Also, the GI50 in the assay on OVCAR-5 ovarian was 0.00145 µM.
On to `Cc1cn(C2OC(CO[Si](C)(C)C(C)(C)C)C(N(C)O[Si](C)(C)C(C)(C)C)C2[Se]c2ccccc2)c(=O)[nH]c1=O` (stereo unspecified), for which the TGI with RPMI-8226 leukemia is over 100 µM; in the assay with SK-MEL-2 melanoma it was 34 µM; in the assay on SR leukemia it was over 100 µM; in the assay on NCI-H522 lung, 11.6 µM; in the assay on OVCAR-5 ovarian it was 11.7 µM; in the assay on SF-295 CNS it was 26 µM. The figures for the TGI with OVCAR-3 ovarian and in the assay with SK-MEL-28 melanoma were 19.9 µM and 22.2 µM, respectively.
On to `N#Cc1cccc(-n2[nH]c(=O)ccc2=O)c1`, for which the TGI in the assay on RPMI-8226 leukemia, with SK-MEL-2 melanoma, in the assay on SR leukemia, in the assay on NCI-H522 lung, in the assay with OVCAR-5 ovarian and in the assay on SF-295 CNS was over 100 µM throughout. The TGI in the assay with OVCAR-3 ovarian and in the assay with SK-MEL-28 melanoma was over 100 µM throughout.
With `O=C1/C(=C\c2ccc(Cl)cc2Cl)Sc2scc(-c3ccc(O)c(O)c3)[n+]21`, the TGI was determined as 35.5 µM in the assay on SK-MEL-2 melanoma; 46.7 µM in the assay with BT-549 breast; 39.4 µM with NCI-H522 lung; 46.3 µM in the assay on OVCAR-5 ovarian; 49.2 µM with SF-295 CNS; 23.2 µM with OVCAR-3 ovarian. Moreover, in the assay with SK-MEL-28 melanoma, the TGI came out at 31.7 µM.
Take `CC1(C)[C@@H](Cn2cc(I)c(=O)[nH]c2=O)CC[C@@]1(C)CO`: the TGI in the assay with SK-MEL-2 melanoma, in the assay on T-47D breast, in the assay on OVCAR-5 ovarian, in the assay on SF-295 CNS, with OVCAR-3 ovarian and in the assay on SK-MEL-28 melanoma was over 100 µM each time.
In the case of `COC(=O)CC(C)(NS(=O)c1ccc(C)cc1)c1ccccc1` (stereo unspecified), the TGI in the assay with RPMI-8226 leukemia, with SK-MEL-2 melanoma, in the assay with SR leukemia, with T-47D breast, in the assay on NCI-H522 lung and in the assay on OVCAR-5 ovarian was over 100 µM throughout. Also, the TGI in the assay on SF-295 CNS, in the assay with OVCAR-3 ovarian and in the assay on SK-MEL-28 melanoma was over 100 µM each time.
As for `N#CSC#CCCC#CSC#N`, the TGI in the assay with SK-MEL-2 melanoma is 43.1 µM; with BT-549 breast it was 47.7 µM; with SR leukemia, over 100 µM; in the assay with NCI-H522 lung it was 13.6 µM; in the assay with OVCAR-5 ovarian it was 40.3 µM; with SF-295 CNS, 32.7 µM. Further, the TGI in the assay with OVCAR-3 ovarian amounted to 51.8 µM; in the assay on SK-MEL-28 melanoma, 82 µM.
`O=c1[nH]c(=O)c2c3n(cc2[nH]1)CCCCC3`: the TGI in the assay with RPMI-8226 leukemia, with SR leukemia, in the assay with T-47D breast, with NCI-H522 lung, in the assay on OVCAR-5 ovarian and in the assay on SF-295 CNS was over 100 µM in each case. The compound further came in with a TGI with SK-MEL-28 melanoma of over 100 µM.
On to `CCNC(=O)c1ccc(C)c(N=NN(C)C)c1`, for which the TGI with SK-MEL-2 melanoma, in the assay on NCI-H522 lung, in the assay on SF-295 CNS, with OVCAR-3 ovarian and in the assay with SK-MEL-28 melanoma was over 100 µM each time.
`O=c1[nH]c2cc(Cl)ccc2nc1/C(=N\Nc1ccccc1)C(O)c1ccc(Cl)c(Cl)c1` (stereo unspecified): the TGI in the assay on RPMI-8226 leukemia, in the assay on SK-MEL-2 melanoma, with SR leukemia, in the assay with NCI-H522 lung, with OVCAR-5 ovarian and in the assay on SF-295 CNS was over 100 µM each time. This compound had a TGI in the assay on OVCAR-3 ovarian of over 100 µM.
On to `CON(C)C(=O)C(Cc1ccccc1)NC(=O)OCc1ccccc1` (stereo unspecified), for which the TGI in the assay on RPMI-8226 leukemia, in the assay with SK-MEL-2 melanoma, in the assay with SR leukemia, in the assay on NCI-H522 lung, in the assay with OVCAR-5 ovarian and with SF-295 CNS was over 100 µM in each case. Further, the TGI in the assay on OVCAR-3 ovarian and with SK-MEL-28 melanoma was over 100 µM in each case.
As for `CCCCCCOc1ccc(/C=N/Nc2cc(C)nc3ccc(Cl)cc23)cc1`, the GI50 was 1.72 µM in the assay with SK-MEL-2 melanoma; 0.336 µM in the assay with SR leukemia; 1.98 µM in the assay on T-47D breast; 1.79 µM in the assay on NCI-H522 lung; 1.92 µM with OVCAR-5 ovarian; 1.73 µM in the assay with SF-295 CNS. Further, the GI50 with OVCAR-3 ovarian is 2.05 µM; in the assay with SK-MEL-28 melanoma it was 1.76 µM. Besides, the TGI with SK-MEL-2 melanoma was 3.24 µM; in the assay with SR leukemia, 1.6 µM; in the assay on T-47D breast, 3.97 µM; in the assay on NCI-H522 lung, 3.51 µM; in the assay with OVCAR-5 ovarian, 3.35 µM; in the assay on SF-295 CNS it was 3.24 µM. The TGI with OVCAR-3 ovarian turned out to be 3.74 µM; in the assay with SK-MEL-28 melanoma, 3.18 µM.
Turning to `CCOC(=O)c1cc(-c2ccc(OC)cc2)c([N+](=O)[O-])n1C`, the TGI in the assay with SK-MEL-2 melanoma, in the assay with BT-549 breast, with SR leukemia, in the assay on NCI-H522 lung, in the assay with OVCAR-5 ovarian and with SF-295 CNS was over 10 µM each time. In the assay on OVCAR-3 ovarian, this compound had a TGI of over 10 µM.
Consider `COc1cc2c(cc1O)[C@H](C)C(c1ccc(OC)c(OC)c1)O2` (stereo partly specified), for which the TGI in the assay on SK-MEL-2 melanoma is 12.8 µM; in the assay with NCI-H522 lung, 30.8 µM; with OVCAR-5 ovarian it was over 100 µM; with SF-295 CNS, over 100 µM; in the assay with OVCAR-3 ovarian, 16.6 µM; in the assay on SK-MEL-28 melanoma, 23 µM.
`COc1ccc(C2Oc3cc(OC)c(OC)cc3C2CCl)cc1OC` (stereo unspecified): the TGI in the assay on RPMI-8226 leukemia, in the assay on SK-MEL-2 melanoma, with SR leukemia, in the assay with NCI-H522 lung, in the assay with OVCAR-5 ovarian and in the assay on OVCAR-3 ovarian was over 100 µM in each case. The compound further gave a TGI in the assay on SK-MEL-28 melanoma of over 100 µM.
For `COc1cc(-c2cccs2)sc1-c1cccs1`, the TGI with RPMI-8226 leukemia was over 100 µM; in the assay with SK-MEL-2 melanoma, over 100 µM; in the assay with SR leukemia it was 61.8 µM; in the assay on NCI-H522 lung it was over 100 µM; with OVCAR-5 ovarian it was over 100 µM; in the assay with SF-295 CNS, over 100 µM. The TGI in the assay with OVCAR-3 ovarian and in the assay with SK-MEL-28 melanoma was over 100 µM in each case.
